{"source": "patent US20110201620A1", "about": "“2-(3-AMINOARYL) AMINO-4-ARYL-THIAZOLES AND THEIR USE AS C-KIT INHIBITORS” (AB SCIENCE, priority 2002, published 2011)", "key": {"Human Kit exon 9": {"test_system": "Human Kit exon 9", "conditions": "read-out: Cell proliferation assay (IC50) Human Kit exon 9; cited from earlier work"}, "[1]": {"test_system": "locally advanced or metastatic, c-Kit positive GIST", "experiment": "Phase 2 clinical trial in advanced GIST, efficacy (RECIST, FDG-PET, PFS, OS)", "format": "in vivo, human", "description": "Methods; Patients: Patients enrolled in this study were aged over 18 years with inoperable, non-pretreated, histologically proven locally advanced or metastatic, c-Kit positive GIST. […] Exclusion criteria included: inadequate organ function defined via blood tests, severe liver or cardiac failure, and severe neurological or psychiatric disorders. Patients receiving a concomitant treatment within 4 weeks before inclusion, and pregnant or lactating women were also excluded. […] Time-to-event analyses were calculated from the date of first masitinib intake to the date of event (documented progression or death). Patients who had not progressed at the date of last tumor assessment were censored at that date for PFS. Patients alive at the time of the analysis were censored at the date of last contact for OS. Methods; Statistical analyses: Simon […] two-stage design was used for this prospective, multicenter, single-group, phase II trial. Fourteen patients were initially enrolled, with recruitment of an additional ten patients being dependent on the occurrence of at least one objective RECIST response. This population was further extended to a total of 30 patients to ensure a sufficient evaluable population for all end-points; the type I(α) error was 5% (two-sided) for all analyses. Quantitative variables were described by the number of filled and missing data, mean, standard deviation, median, minimum and maximum Qualitative variables were described by the number of missing data and, for each modality, frequency and percentage (referring to filled data). Time-to-event data were described using Kaplan-Meier (KM) estimates. The median was provided with its 95% confidence interval (95% CI). PFS rates were given every 6 months with KM estimates. All data analyses and reporting procedures used SAS v9.1 in a Windows XP operating system environment."}, "[2]": {"conditions": "Kaplan-Meier estimate, listed as masitinib"}}, "note": "Where “and” joins values, the source holds several entries; their conditions need not be identical. Identical values can stand only once."}
{"compound": "Cc1ccc(NC(=O)c2ccc(CN3CCN(C)CC3)cc2)cc1Nc1nc(-c2cccnc2)cs1", "note": "[Compound 066, 4-(4-methyl-piperazin-1-ylmethyl)-N-[4-methyl-3-(4-pyridin-3-yl-thiazol-2-ylamino)-phenyl]-benzamide]", "values": [{"measurement": "IC50", "setting": "Human Kit exon 9", "value": 100, "unit": "nM"}, {"measurement": "patients who never benefited from treatment (early resistance)", "setting": "[1]; 1/30 patient", "value": 3.3, "unit": "%"}, {"measurement": "OS rates (%) [95% CI] 12 months", "setting": "[1]; [2]", "value": 96.7, "unit": "%"}, {"measurement": "OS rates (%) [95% CI] 24 months", "setting": "[1]; [2]", "value": 89.9, "unit": "%"}, {"measurement": "OS rates (%) [95% CI] 36 months", "setting": "[1]; [2]", "value": 89.9, "unit": "%"}, {"measurement": "PFS rate (%) [95% CI] 6 months", "setting": "[1]; [2]", "value": 88.9, "unit": "%"}, {"measurement": "PFS rate (%) [95% CI] 12 months", "setting": "[1]; [2]", "value": 76.8, "unit": "%"}, {"measurement": "PFS rate (%) [95% CI] 24 months", "setting": "[1]; [2]", "value": "59.7% and 60%"}, {"measurement": "PFS rate (%) [95% CI] 36 months", "setting": "[1]; [2]", "value": "55.4% and 55%"}, {"measurement": "PFS Median", "setting": "[1]; Kaplan-Meier, ITT N = 30", "value": 41.3, "unit": "months"}, {"measurement": "Metabolic response CMR, At 1 month", "setting": "[1]; N = 13, FDG-PET, complete metabolic response", "value": "0 (0.0%) n (%)"}, {"measurement": "Metabolic response CMR + PMR, At 1 month", "setting": "[1]; N = 13, FDG-PET, metabolic response rate", "value": "9 (69.2%) n (%)"}, {"measurement": "Metabolic response PMR, At 1 month", "setting": "[1]; N = 13, FDG-PET, partial metabolic response, listed as masitinib", "value": "9 (69.2%) n (%)"}, {"measurement": "Metabolic response SMD, At 1 month", "setting": "[1]; N = 13, FDG-PET, stable metabolic disease, listed as masitinib", "value": "4 (30.8%) n (%)"}, {"measurement": "Metabolic response CMR, At 2 months", "setting": "[1]; N = 14, FDG-PET, complete metabolic response, listed as masitinib", "value": "3 (21.4%) n (%)"}, {"measurement": "Metabolic response CMR + PMR, At 2 months", "setting": "[1]; N = 14, FDG-PET, metabolic response rate, listed as masitinib", "value": "12 (85.7%) n (%)"}, {"measurement": "Metabolic response PMR, At 2 months", "setting": "[1]; N = 14, FDG-PET, partial metabolic response, listed as masitinib", "value": "9 (64.2%) n (%)"}, {"measurement": "Metabolic response SMD, At 2 months", "setting": "[1]; N = 14, FDG-PET, stable metabolic disease, listed as masitinib", "value": "2 (14.3%) n (%)"}, {"measurement": "Response (RECIST) CR, 2 months", "setting": "[1]; N = 30, complete response", "value": "0 (0.0%) n (%)"}, {"measurement": "Response (RECIST) CR, Best Response", "setting": "[1]; N = 30, complete response, listed as masitinib", "value": "1 (3.3%) n (%)"}, {"measurement": "Response (RECIST) CR + PR + SD, 2 months", "setting": "[1]; N = 30, disease control rate", "value": "29 (96.7%) n (%)"}, {"measurement": "Response (RECIST) CR + PR + SD, Best Response", "setting": "[1]; N = 30, disease control rate, listed as masitinib", "value": "29 (96.7%) n (%)"}, {"measurement": "Response (RECIST) CR + PR, 2 months", "setting": "[1]; N = 30, overall response rate", "value": "6 (20.0%) n (%)"}, {"measurement": "Response (RECIST) CR + PR, Best Response", "setting": "[1]; N = 30, overall response rate, listed as masitinib", "value": "16 (53.3%) n (%)"}, {"measurement": "Response (RECIST) PR, Best Response", "setting": "[1]; N = 30, partial response, listed as masitinib", "value": "15 (50.0%) n (%)"}, {"measurement": "Response (RECIST) PD, Best Response", "setting": "[1]; N = 30, progressive disease, listed as masitinib", "value": "1 (3.3%) n (%)"}, {"measurement": "Response (RECIST) SD, Best Response", "setting": "[1]; N = 30, stable disease, listed as masitinib", "value": "13 (43.3%) n (%)"}, {"measurement": "tumour response according to changes in tumour size (RECIST), evaluable patients", "setting": "[1]; after 2 months of masitinib", "value": 20, "unit": "%"}, {"measurement": "tumour response according to metabolic response using FDG-PET", "setting": "[1]; after 2 months of masitinib", "value": 86, "unit": "%"}, {"measurement": "tumour response in patients assessed with DCE-US", "setting": "[1]; after 2 months of masitinib", "value": 75, "unit": "%"}, {"measurement": "patients with confirmed PR after 2 months, Simon first stage", "setting": "[1]; first 14 patients", "value": "4/14"}, {"measurement": "Median time to first objective response", "setting": "[1]; range: 0.8-23.8 months", "value": 5.6, "unit": "months"}]}
